Reference: patent US20190105367A1, “ANTIMICROBIAL 4-OXOQUINOLIZINES” (Emergent Product Development Gaithersburg Inc., priority 2011, published 2019)
≈ marks a conversion by molar mass, not a printed value. Where two headings read alike, the source gives them in different places.

Legend:
[1] = system: strains of A. baumannii and one strain of Acinetobacter sp.; test: MIC with sub-inhibitory concentrations (0.25x MIC) of polymyxin B, panel of Acinetobacter strains (Example 4); type: cell-based
A. baumannii ATCC 19606 [2] = test: MIC without and with sub-inhibitory polymyxin B (Example 4); type: cell-based, Acinetobacter baumannii; conditions: for MIC without PB/MIC + PB: A. baumannii ATCC 19606; for MIC: Acinetobacter baumannii
A. baumannii ATCC 19606 [3] = test: Preliminary MBC without and with sub-inhibitory polymyxin B (Example 4); type: cell-based, Acinetobacter baumannii; conditions: Acinetobacter baumannii
A. baumannii J2 [4] = test: MIC without and with sub-inhibitory polymyxin B (Example 4); type: cell-based, Acinetobacter baumannii; conditions: for MIC without PB/MIC + PB: A. baumannii J2; for MIC: Acinetobacter baumannii
A. baumannii J2 [5] = test: Preliminary MBC without and with sub-inhibitory polymyxin B (Example 4); type: cell-based, Acinetobacter baumannii; conditions: Acinetobacter baumannii, preliminary MBC
[6] = system: Acinetobacter sp. (H064200250); test: MIC without and with sub-inhibitory polymyxin B (Example 4); type: cell-based; conditions: for MIC: Acinetobacter
[7] = system: Acinetobacter sp. (H064200250); test: Preliminary MBC without and with sub-inhibitory polymyxin B (Example 4); type: cell-based; conditions: Acinetobacter, preliminary MBC
Procedure, shortened: (§1)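 Read-out: the minimum concentration at which colonies were reduced by ca. 90% relative to positive control, usually seen as isolated colonies or a clear plate. Plates had been kept 18-20 hours at 37° C beforehand.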

A. baumannii A329 = test: as above; type: cell-based, Acinetobacter baumannii; conditions: Acinetobacter baumannii, A329, A. baumannii A329, +0.06 μg/ml PB, 2nd experiment, read-out: MBC
A. baumannii A387 [8] = test: MIC without and with sub-inhibitory polymyxin B (Example 4); type: cell-based, Acinetobacter baumannii; conditions: for MIC without PB/MIC + PB: A. baumannii A387
A. baumannii A387 [9] = test: Preliminary MBC without and with sub-inhibitory polymyxin B (Example 4); type: cell-based, Acinetobacter baumannii; conditions: Acinetobacter baumannii
A. baumannii A390 [10] = test: MIC without and with sub-inhibitory polymyxin B (Example 4); type: cell-based, Acinetobacter baumannii; conditions: +0.06 μg/ml PB, 2nd experiment
A. baumannii A14 [11] = test: Preliminary MBC without and with sub-inhibitory polymyxin B (Example 4); type: cell-based, Acinetobacter baumannii; conditions: 2nd experiment
Procedure, shortened: as §1

A. baumannii A390 [12] = test: as above; type: cell-based, Acinetobacter baumannii; conditions: Acinetobacter baumannii, A390, A. baumannii A390, +0.06 μg/ml PB, 2nd experiment, read-out: MBC
Procedure, shortened: as §1

A. baumannii A473 [13] = test: as above; type: cell-based, Acinetobacter baumannii; conditions: Acinetobacter baumannii, A473, A. baumannii A473, +0.06 μg/ml PB, 2nd experiment, read-out: MBC
Procedure, shortened: as §1

A. baumannii NCTC 13301 [14] = test: as above; type: cell-based, Acinetobacter baumannii; conditions: Acinetobacter baumannii
Procedure, shortened: as §1

A. baumannii A401 [15] = test: MIC without and with sub-inhibitory polymyxin B (Example 4); type: cell-based, Acinetobacter baumannii; conditions: for MIC: Acinetobacter baumannii
A. baumannii A401 [16] = test: Preliminary MBC without and with sub-inhibitory polymyxin B (Example 4); type: cell-based, Acinetobacter baumannii; conditions: Acinetobacter baumannii
A. baumannii A472 [17] = test: MIC without and with sub-inhibitory polymyxin B (Example 4); type: cell-based, Acinetobacter baumannii; conditions: for MIC: Acinetobacter baumannii
A. baumannii A472 [18] = test: Preliminary MBC without and with sub-inhibitory polymyxin B (Example 4); type: cell-based, Acinetobacter baumannii; conditions: Acinetobacter baumannii, preliminary MBC
A. baumannii A473 [19] = test: MIC without and with sub-inhibitory polymyxin B (Example 4); type: cell-based, Acinetobacter baumannii; conditions: +0.06 μg/ml PB, 2nd experiment
A. baumannii A489 = test: as above; type: cell-based, Acinetobacter baumannii; conditions: for MIC without PB/MIC + PB: A. baumannii A489; for MIC: Acinetobacter baumannii
A. baumannii NCTC 13301 [20] = test: as above; type: cell-based, Acinetobacter baumannii
A. baumannii NCTC 13301 [21] = test: as above; type: cell-based, Acinetobacter baumannii; conditions: +[…] PB, 2nd experiment
A. baumannii A14 [22] = test: as above; type: cell-based, Acinetobacter baumannii; conditions: 1st experiment
[23] = ratio, PB 0.06 μg/ml, 1st experiment

Cc1c(-c2cc(Cl)c(N)c(Cl)c2)ccn2c(=O)c(C(=O)O)cc(C3CC3)c12 [Compound 3, 8-(3,5-dichloro-4-amino-phenyl)-1-cyclopropyl-9-methyl-4-oxo-quinolizine-3-carboxylic acid] was tested, and the “MIC range with PB (0.25x MIC) Oct. 1, 2008 n = 8” value ([1]; 1st experiment, […] polymyxin B, ATCC 19606, A329, A390 and A473 not taken) was no more than 0.03 to 1 µg/mL, the “MIC range with PB (0.25x MIC) Oct. 14, 2008 n = 11” value ([1]; 2nd experiment, 0.06 μg/ml polymyxin B, all strains except the ATCC strain) was no more than 0.03 to 0.5 µg/mL and the “MIC without PB/MIC + PB” value (A. baumannii ATCC 19606 [2]; +0.06 μg/ml PB, 2nd experiment) was no less than 8. For the same compound, the “MIC without PB/MIC + PB” value (A. baumannii ATCC 19606 [2]; [23]) was no less than 8, the MIC (A. baumannii ATCC 19606 [2]; ATCC19606, A. baumannii ATCC 19606, +0.06 μg/ml PB, 2nd experiment, read-out: MIC) was no more than 0.03 µg/mL and the MIC (A. baumannii ATCC 19606 [2]; ATCC19606, read-out: MIC +0.06 μg/ml PB, A. baumannii ATCC 19606, +0.06 μg/ml polymyxin B, 1st experiment) was no more than 0.03 µg/mL. For the same compound, the MBC (A. baumannii ATCC 19606 [3]; ATCC19606, A. baumannii ATCC 19606, +0.06 μg/ml PB, 2nd experiment, read-out: MBC) was no more than 0.03 µg/mL, the MBC (A. baumannii ATCC 19606 [3]; ATCC19606, read-out: MBC +0.06 μg/ml PB, A. baumannii ATCC 19606, +0.06 μg/ml polymyxin B, 1st experiment) was no more than 0.03 µg/mL and the “MIC without PB/MIC + PB” value (A. baumannii J2 [4]; +[…] PB, 2nd experiment) was no less than 1024. For the same compound, the “MIC without PB/MIC + PB” value (A. baumannii J2 [4]; ratio, PB […], 1st experiment) was 64, the MIC (A. baumannii J2 [4]; J2, A. baumannii J2, +[…] PB, 2nd experiment, read-out: MIC) was no more than 0.03 µg/mL and the MIC (A. baumannii J2 [4]; J2, read-out: MIC +[…] PB, A. baumannii J2, +[…] polymyxin B, 1st experiment) was 0.125 µg/mL (≈ 0.31 µM). The MBC (A. baumannii J2 [5]; J2, A. baumannii J2, +[…] PB, 2nd experiment, read-out: MBC) was no more than 0.03 µg/mL, the MBC (A. baumannii J2 [5]; J2, read-out: MBC +[…] PB, A. baumannii J2, +[…] polymyxin B, 1st experiment) was 0.125 µg/mL (≈ 0.31 µM) and the “MIC without PB/MIC + PB” value ([6]; Acinetobacter spp. H064200250 (OXA51), +[…] PB, 2nd experiment) was 256. For the same compound, the “MIC without PB/MIC + PB” value ([6]; Acinetobacter spp. H064200250, ratio, PB […], 1st experiment) was 16, the MIC ([6]; Acinetobacter spp. H064200250 (OXA51), +[…] PB, 2nd experiment, read-out: MIC) was 0.06 µg/mL (≈ 0.149 µM) and the MIC ([6]; read-out: MIC +[…] PB, Acinetobacter spp. H064200250, +[…] polymyxin B, 1st experiment) was 0.5 µg/mL (≈ 1.24 µM). For the same compound, the MBC ([7]; Acinetobacter spp. H064200250 (OXA51), +[…] PB, 2nd experiment, read-out: MBC) was 0.06 µg/mL (≈ 0.149 µM), the MBC ([7]; read-out: MBC +[…] PB, Acinetobacter spp. H064200250, +[…] polymyxin B, 1st experiment) was 0.5 µg/mL (≈ 1.24 µM) and the MBC (A. baumannii A329) was 0.25 µg/mL (≈ 0.62 µM). For the same compound, the “MIC without PB/MIC + PB” value (A. baumannii A387 [8]; +0.06 μg/ml PB, 2nd experiment) was no less than 32, the “MIC without PB/MIC + PB” value (A. baumannii A387 [8]; [23]) was no less than 32 and the MIC (A. baumannii A387 [8]; Acinetobacter baumannii, A387, read-out: MIC +0.06 μg/ml PB, A. baumannii A387, +0.06 μg/ml polymyxin B, 1st experiment) was no more than 0.03 µg/mL. For the same compound, the MBC (A. baumannii A387 [9]; A387, A. baumannii A387, +0.06 μg/ml PB, 2nd experiment, read-out: MBC) was no more than 0.03 µg/mL, the MBC (A. baumannii A387 [9]; A387, read-out: MBC +0.06 μg/ml PB, A. baumannii A387, +0.06 μg/ml polymyxin B, 1st experiment) was 0.25 µg/mL and the “MIC without PB/MIC + PB” value (A. baumannii A390 [10]; A. baumannii A390) was no less than 256. For the same compound, the MIC (A. baumannii A390 [10]; Acinetobacter baumannii, A390, A. baumannii A390, read-out: MIC) was 0.125 µg/mL (≈ 0.31 µM), the MBC (A. baumannii A14 [11]; A. baumannii A14, +0.06 μg/ml PB) was 0.125 µg/mL (≈ 0.31 µM) and the MBC (A. baumannii A14 [11]; Acinetobacter baumannii, A14, A. baumannii A14, without PB, read-out: MBC) was greater than 32 µg/mL. The MBC (A. baumannii A390 [12]) was 0.125 µg/mL (≈ 0.31 µM), the MBC (A. baumannii A473 [13]) was 0.06 µg/mL (≈ 0.149 µM) and the MBC (A. baumannii NCTC 13301 [14]; NCTC13301, A. baumannii NCTC 13301, +[…] PB, preliminary MBC, 2nd experiment, read-out: MBC) was no more than 0.03 µg/mL. The MBC (A. baumannii NCTC 13301 [14]; NCTC13301, read-out: MBC +[…] PB) was 0.5 µg/mL (≈ 1.24 µM), the “MIC without PB/MIC + PB” value (A. baumannii A401 [15]; A baumannii A 401, ratio, PB 0.06 μg/ml, 1st experiment) was 64 and the MIC (A. baumannii A401 [15]; A401, A baumannii A 401, +0.06 μg/ml PB, 2nd experiment, read-out: MIC) was 0.125 µg/mL (≈ 0.31 µM). The MIC (A. baumannii A401 [15]; A401, read-out: MIC +0.06 μg/ml PB, A baumannii A 401, +0.06 μg/ml polymyxin B, 1st experiment) was 0.125 µg/mL, the MBC (A. baumannii A401 [16]; A401, A baumannii A 401, +0.06 μg/ml PB, 2nd experiment, read-out: MBC) was 0.125 µg/mL (≈ 0.31 µM) and the MBC (A. baumannii A401 [16]; A401, read-out: MBC +0.06 μg/ml PB, A baumannii A 401, +0.06 μg/ml polymyxin B, 1st experiment) was 0.125 µg/mL. The “MIC without PB/MIC + PB” value (A. baumannii A472 [17]; A. baumannii A472, ratio, PB […], 1st experiment) was 64, the MIC (A. baumannii A472 [17]; A472, A. baumannii A472, +[…] PB, 2nd experiment, read-out: MIC) was no more than 0.03 µg/mL and the MIC (A. baumannii A472 [17]; A472, read-out: MIC +[…] PB, A. baumannii A472, +[…] polymyxin B, 1st experiment) was 0.5 µg/mL (≈ 1.24 µM). For the same compound, the MBC (A. baumannii A472 [18]; A472, A. baumannii A472, +[…] PB, 2nd experiment, read-out: MBC) was no more than 0.03 µg/mL, the MBC (A. baumannii A472 [18]; A472, read-out: MBC +[…] PB, A. baumannii A472, +[…] polymyxin B, 1st experiment) was 0.25 µg/mL (≈ 0.62 µM) and the “MIC without PB/MIC + PB” value (A. baumannii A473 [19]; A. baumannii A473) was no less than 256. The MIC (A. baumannii A473 [19]; Acinetobacter baumannii, A473, A. baumannii A473, read-out: MIC) was no more than 0.03 µg/mL, the “MIC without PB/MIC + PB” value (A. baumannii A489; +[…] PB, 2nd experiment) was no less than 128 and the “MIC without PB/MIC + PB” value (A. baumannii A489; ratio, PB […], 1st experiment) was 64. The MIC (A. baumannii A489; A489, A. baumannii A489, +[…] PB, 2nd experiment, read-out: MIC) was no more than 0.03 µg/mL, the MIC (A. baumannii A489; A489, read-out: MIC +[…] PB, A. baumannii A489, +[…] polymyxin B, 1st experiment) was 0.06 µg/mL (≈ 0.149 µM) and the “MIC without PB/MIC + PB” value (A. baumannii NCTC 13301 [20]; A. baumannii NCTC 13301, ratio, PB […], 1st experiment) was no less than 64. For the same compound, the MIC (A. baumannii NCTC 13301 [20]; Acinetobacter baumannii, NCTC13301, read-out: MIC +[…] PB) was 0.5 µg/mL (≈ 1.24 µM), the “MIC without PB/MIC + PB” value (A. baumannii NCTC 13301 [21]; A. baumannii NCTC 13301) was no less than 1024 and the MIC (A. baumannii NCTC 13301 [21]; Acinetobacter baumannii, NCTC13301, A. baumannii NCTC 13301, read-out: MIC) was no more than 0.03 µg/mL. The “MIC +0.06 μg/ml PB” value (A. baumannii A14 [22]; +0.06 μg/ml polymyxin B) was 1 µg/mL, the MIC (A. baumannii A14 [22]; Acinetobacter baumannii, 24 h, without polymyxin B, read-out: MIC without PB) was greater than 32 µg/mL and the “MIC without PB/MIC + PB” value (A. baumannii A14 [22]; ratio, PB 0.06 μg/ml) was no less than 32.
